Data on two compounds can be found in ChEMBL document CHEMBL5137080, “Discovery of Novel 7-Hydroxy-5-oxo-4,5-dihydrothieno[3,2-b]pyridine-6-carboxamide Derivatives with Potent and Selective Antifungal Activity against Cryptococcus Species” (J Med Chem, 2022).

Series [1] has as its system Cryptococcus deuterogattii. The series can be described thus: Antifungal activity against Cryptococcus gattii WM178 assessed as fungal growth inhibition incubated for 72 hrs in presence of P163-0892 by broth microdilution method. The series is classed as functional, Cryptococcus gattii species complex.
Series [2] relates to Candida albicans. In words: Antifungal activity against Candida albicans SC5314 assessed as fungal growth inhibition incubated for 48 hrs in presence of P163-0892 by broth microdilution method. It counts as functional.
For series [3], the system named is [Candida] auris. The series can be described thus: Antifungal activity against Candida auris CBS 12372 assessed as fungal growth inhibition incubated for 48 hrs in presence of P163-0892 by broth microdilution method. It counts as functional. Conditions: Candidozyma auris.
Series [4] concerns Nakaseomyces glabratus. The series can be described thus: Antifungal activity against Candida glabrata ATCC1182 assessed as fungal growth inhibition incubated for 48 hrs in presence of P163-0892 by broth microdilution method. The series is classed as functional.
The test system of series [5] is Candida tropicalis. In words: Antifungal activity against Candida tropicalis ATCC20026 assessed as fungal growth inhibition incubated for 48 hrs in presence of P163-0892 by broth microdilution method. The series is classed as functional.
For series [6], the system named is Cryptococcus neoformans. The series can be described thus: Antifungal activity against Cryptococcus neoformans clinical isolate HN1 assessed as fungal growth inhibition incubated for 72 hrs in presence of P163-0892 by broth microdilution method. The series is classed as functional.
Series [7] concerns Cryptococcus neoformans. In words: Antifungal activity against Cryptococcus neoformans clinical isolate HN2 assessed as fungal growth inhibition incubated for 72 hrs in presence of P163-0892 by broth microdilution method. It counts as functional.
Series [8] deals with Cryptococcus neoformans. The series can be described thus: Antifungal activity against Cryptococcus neoformans clinical isolate HN17 assessed as fungal growth inhibition incubated for 72 hrs in presence of P163-0892 by broth microdilution method. It counts as functional.
Series [9] relates to Cryptococcus neoformans. In words: Antifungal activity against Cryptococcus neoformans clinical isolate BJ3 assessed as fungal growth inhibition incubated for 72 hrs in presence of P163-0892 by broth microdilution method. It counts as functional.
The subject of series [10] is Cryptococcus neoformans. The series can be described thus: Antifungal activity against Cryptococcus neoformans clinical isolate SH68 assessed as fungal growth inhibition incubated for 72 hrs in presence of P163-0892 by broth microdilution method. The series is classed as functional.
The test system of series [11] is Cryptococcus neoformans. In words: Antifungal activity against Cryptococcus neoformans clinical isolate 443 assessed as fungal growth inhibition incubated for 72 hrs in presence of P163-0892 by broth microdilution method. The series is classed as functional.
For series [12], the system named is Nakaseomyces glabratus. The series can be described thus: Synergistic antifungal activity against Candida glabrata ATCC1182 assessed as fractional inhibitory concentration index incubated for 48 hrs in presence of P163-0892 by broth microdilution method. The series is classed as functional.
Series [13] relates to Pichia kudriavzevii. In words: Synergistic antifungal activity against Candida krusei ATCC2340 assessed as fractional inhibitory concentration index incubated for 48 hrs in presence of P163-0892 by broth microdilution method. The series is classed as functional.
The subject of series [14] is Candida tropicalis. The series can be described thus: Synergistic antifungal activity against Candida tropicalis ATCC20026 assessed as fractional inhibitory concentration index incubated for 48 hrs in presence of P163-0892 by broth microdilution method. It counts as functional.
In series [15] the test system is Cryptococcus neoformans. The series can be described thus: Synergistic antifungal activity against Cryptococcus neoformans clinical isolate HN2-40 assessed as fractional inhibitory concentration index incubated for 72 hrs in presence of P163-0892 by broth microdilution method. The series is classed as functional.
Series [16] concerns Cryptococcus neoformans. In words: Synergistic antifungal activity against Cryptococcus neoformans clinical isolate HN20 assessed as fractional inhibitory concentration index incubated for 72 hrs in presence of P163-0892 by broth microdilution method. The series is classed as functional.
The subject of series [17] is Cryptococcus neoformans. In words: Synergistic antifungal activity against Cryptococcus neoformans clinical isolate BJ3 assessed as fractional inhibitory concentration index incubated for 72 hrs in presence of P163-0892 by broth microdilution method. The series is classed as functional.
In series [18] the test system is Cryptococcus neoformans. The series can be described thus: Synergistic antifungal activity against Cryptococcus neoformans clinical isolate 444 assessed as fractional inhibitory concentration index incubated for 72 hrs in presence of P163-0892 by broth microdilution method. The series is classed as functional.
Series [19] concerns Cryptococcus deuterogattii. The series can be described thus: Antifungal activity against Cryptococcus gattii WM178 assessed as fungal growth inhibition incubated for 72 hrs in presence of Fluconazole by broth microdilution method. The series is classed as functional, Cryptococcus gattii species complex.
Series [20] deals with Cryptococcus neoformans. In words: Antifungal activity against Cryptococcus neoformans clinical isolate HN1 assessed as fungal growth inhibition incubated for 72 hrs in presence of Fluconazole by broth microdilution method. The series is classed as functional.
The subject of series [21] is Cryptococcus neoformans. The series can be described thus: Antifungal activity against Cryptococcus neoformans clinical isolate HN2-40 assessed as fungal growth inhibition incubated for 72 hrs in presence of Fluconazole by broth microdilution method. The series is classed as functional.
In series [22] the test system is Cryptococcus neoformans. In words: Antifungal activity against Cryptococcus neoformans clinical isolate HN17 assessed as fungal growth inhibition incubated for 72 hrs in presence of Fluconazole by broth microdilution method. The series is classed as functional.
Series [23] relates to Cryptococcus neoformans. In words: Antifungal activity against Cryptococcus neoformans clinical isolate HN19 assessed as fungal growth inhibition incubated for 72 hrs in presence of Fluconazole by broth microdilution method. The series is classed as functional.
Series [24] concerns Cryptococcus neoformans. In words: Antifungal activity against Cryptococcus neoformans clinical isolate HN20 assessed as fungal growth inhibition incubated for 72 hrs in presence of Fluconazole by broth microdilution method. It counts as functional.
The subject of series [25] is Cryptococcus gattii. In words: Synergistic antifungal activity against Cryptococcus gattii WM179 assessed as fractional inhibitory concentration index incubated for 72 hrs in presence of Fluconazole by broth microdilution method. It counts as functional, Cryptococcus gattii species complex.
Series [26] concerns Candida albicans. The series can be described thus: Synergistic antifungal activity against Candida albicans SC5314 assessed as fractional inhibitory concentration index incubated for 48 hrs in presence of Fluconazole by broth microdilution method. The series is classed as functional.
For series [27], the system named is Nakaseomyces glabratus. The series can be described thus: Synergistic antifungal activity against Candida glabrata ATCC1182 assessed as fractional inhibitory concentration index incubated for 48 hrs in presence of Fluconazole by broth microdilution method. It counts as functional.
For series [28], the system named is Cryptococcus neoformans. The series can be described thus: Synergistic antifungal activity against Cryptococcus neoformans clinical isolate HN17 assessed as fractional inhibitory concentration index incubated for 72 hrs in presence of Fluconazole by broth microdilution method. It counts as functional.
In series [29] the test system is Cryptococcus neoformans. The series can be described thus: Synergistic antifungal activity against Cryptococcus neoformans clinical isolate HN20 assessed as fractional inhibitory concentration index incubated for 72 hrs in presence of Fluconazole by broth microdilution method. It counts as functional.
The subject of series [30] is Cryptococcus neoformans. In words: Synergistic antifungal activity against Cryptococcus neoformans clinical isolate 444 assessed as fractional inhibitory concentration index incubated for 72 hrs in presence of Fluconazole by broth microdilution method. It counts as functional.
Series [31] has as its system Cryptococcus gattii species complex. In words: Synergistic antifungal activity against Cryptococcus gattii clinical isolate SCZ20031 assessed as fractional inhibitory concentration index incubated for 72 hrs in presence of Fluconazole by broth microdilution method. It counts as functional.
Series [32] concerns Cryptococcus neoformans. In words: Antifungal activity against Cryptococcus neoformans H99 assessed as reduction on fungal growth at 2 ug/ml incubated for 48 hrs by plate reader assay. It counts as functional. Set-up: scale not given: the % may be the effect or the level left. Conditions: dose 2 µg/ml.
The subject of series [33] is Cryptococcus deuterogattii. The series can be described thus: Antifungal activity against Cryptococcus gattii WM178 infected in Wax moth larvae assessed as survival rate at 10 mg/kg measured after 9 days in presence of Fluconazole by Kaplan-Meier method. Conditions: WM178, 216 h, time 9 day. It counts as functional, Cryptococcus gattii species complex.
A short description of series [34]: AUC (0 to infinitive) in Sprague-Dawley rat at 2 mg/kg,iv by LC-MS/MS analysis. The series is classed as ADME, organism-based. The arrangement: time infinity, dose 2 mg/kg, route iv. Conditions: in vivo.
Series [35] can be described thus: Half life in Sprague-Dawley rat at 5 mg/kg,po by LC-MS/MS analysis. The series is classed as ADME, organism-based. Conditions: in vivo.
A short description of series [36]: Tmax in Sprague-Dawley rat at 5 mg/kg,po by LC-MS/MS analysis. It counts as ADME, organism-based. Conditions: in vivo.
Series [37] is described as follows: MRT (0 to t) in Sprague-Dawley rat at 5 mg/kg,po by LC-MS/MS analysis. It counts as ADME, organism-based. Conditions: in vivo.
Series [38] can be described thus: Selectivity index, ratio of IC50 for rabbit RBC to MIC for antifungal activity against Cryptococcus neoformans. Conditions: red blood cells, read-out: Selectivity Index. The series is classed as toxicity.

For the compound `OC(Cn1cncn1)(Cn1cncn1)c1ccc(F)cc1F` [FLUCONAZOLE], the minimal inhibitory concentration (MIC) in [1] was 0.5 µg/mL; in [2], 1 µg/mL; in [3], greater than 64 µg/mL; in series [4] it was 4 µg/mL; in series [5] it was 1 µg/mL; in [6] it was 0.125 µg/mL. The MIC came to 0.25 µg/mL in series [7]; 0.5 µg/mL in series [8]; 0.25 µg/mL in [9]; 1 µg/mL in series [10]; 1 µg/mL in series [11]. In addition, the “fractional inhibitory concentration index (FICI)” value came out at 0.625 in [12]; 0.563 in [13]; 0.516 in series [14]; 0.188 in series [15]; 0.375 in series [16]; 0.188 in [17]. Also, in [18], the “fractional inhibitory concentration index (FICI)” value worked out at 0.156.
Turning to `CCCCNC(=O)c1c(O)c2sccc2n(Cc2ccccc2)c1=O`, the minimum inhibitory concentration (MIC) in series [19] turned out to be 0.0625 µg/mL; in series [20], 0.0313 µg/mL; in series [21] it was 0.0313 µg/mL; in series [22], 0.0313 µg/mL; in [23], 0.0313 µg/mL; in [24], 0.0625 µg/mL. The “fractional inhibitory concentration index (FICI)” value in [25] is given as 0.25; in series [26] it was 1.008; in series [27], 0.625; in series [28] it was 0.156; in series [29], 0.375; in series [30], 0.156. The “fractional inhibitory concentration index (FICI)” value in series [31] is given as 0.25. Besides, in series [32], the Activity is 46.8%. Also, the survival at 10 mg/kg in series [33] amounted to 70%. The compound further showed an AUC in series [34] of 749 ng·h/mL. In series [35], this compound showed a half-life of 15.3 h. The Tmax in [36] is 3.17 min. In series [37], this compound gave an MRT last of 3.83 h. Moreover, in series [38], the selectivity ratio was greater than 256.
